Legend:
Assay in all cases: Enzyme inhibiting activity of MMPs, fluorogenic peptide substrate
Format in all cases: biochemical
MMP-2 = target: T1, MMP-2 (Homo sapiens, UniProt P08253); details: substrate MOCAc-Pro-Leu-Gly-Leu-A2Pr(DNP)-Ala-Arg-NH2, fluorescent intensity
T1 construct: purchased Calbiochem (EMD/MERCK Biosciences)
T1 sequence (P08253 110-660): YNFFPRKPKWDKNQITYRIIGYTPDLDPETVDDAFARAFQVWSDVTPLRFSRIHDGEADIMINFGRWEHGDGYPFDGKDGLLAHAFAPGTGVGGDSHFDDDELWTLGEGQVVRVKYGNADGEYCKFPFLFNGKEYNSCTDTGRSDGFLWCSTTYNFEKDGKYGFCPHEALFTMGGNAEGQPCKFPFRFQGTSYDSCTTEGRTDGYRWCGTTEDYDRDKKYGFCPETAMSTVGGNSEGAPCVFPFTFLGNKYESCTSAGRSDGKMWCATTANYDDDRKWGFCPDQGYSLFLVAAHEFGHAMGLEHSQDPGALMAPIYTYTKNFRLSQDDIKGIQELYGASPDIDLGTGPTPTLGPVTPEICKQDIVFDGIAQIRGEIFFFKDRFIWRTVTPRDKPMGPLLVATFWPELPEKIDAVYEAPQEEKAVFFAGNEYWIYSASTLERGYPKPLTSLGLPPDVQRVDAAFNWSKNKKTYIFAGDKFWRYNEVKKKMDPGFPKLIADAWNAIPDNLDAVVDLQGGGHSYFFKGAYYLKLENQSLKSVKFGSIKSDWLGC
Outline: (§1)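 Recombinant human enzymes with the fluorogenic substrate MOCAc-Pro-Leu-Gly-Leu-A2Pr(DNP)-Ala-Arg-NH2. Fluorescence was read for enzyme+substrate±inhibitor and substrate±inhibitor blanks.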

MMP-9 = target: T2, MMP-9 (Homo sapiens, UniProt P14780); details: substrate MOCAc-Pro-Leu-Gly-Leu-A2Pr(DNP)-Ala-Arg-NH2, fluorescent intensity
T2 construct: purchased Calbiochem (EMD/MERCK Biosciences)
T2 sequence (P14780 94-707): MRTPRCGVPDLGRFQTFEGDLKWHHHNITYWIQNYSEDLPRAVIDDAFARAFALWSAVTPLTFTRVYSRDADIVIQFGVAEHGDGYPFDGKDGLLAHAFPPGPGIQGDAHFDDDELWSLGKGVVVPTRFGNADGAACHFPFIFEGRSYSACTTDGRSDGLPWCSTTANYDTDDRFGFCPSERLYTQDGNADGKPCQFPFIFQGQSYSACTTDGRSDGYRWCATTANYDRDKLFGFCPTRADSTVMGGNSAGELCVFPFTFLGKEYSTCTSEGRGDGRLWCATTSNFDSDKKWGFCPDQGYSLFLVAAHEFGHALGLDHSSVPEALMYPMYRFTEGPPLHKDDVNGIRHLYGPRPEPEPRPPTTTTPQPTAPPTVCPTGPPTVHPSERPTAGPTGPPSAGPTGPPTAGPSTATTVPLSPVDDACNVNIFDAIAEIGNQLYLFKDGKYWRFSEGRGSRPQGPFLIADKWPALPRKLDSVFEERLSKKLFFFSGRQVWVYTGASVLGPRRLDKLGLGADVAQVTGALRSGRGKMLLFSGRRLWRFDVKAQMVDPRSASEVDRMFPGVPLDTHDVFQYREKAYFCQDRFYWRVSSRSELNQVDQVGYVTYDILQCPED
Outline: as §1

MMP-13 = target: T3, MMP-13 (Homo sapiens, UniProt P45452); details: APMA-activated proenzyme; substrate MOCAc-Pro-Leu-Gly-Leu-A2Pr(DNP)-Ala-Arg-NH2, fluorescent intensity; read-out: IC50 MMP-13
T3 construct: purchased Calbiochem (EMD/MERCK Biosciences)
Outline: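 Pro-MMP-13 was activated with 1 mM APMA at 37° C for 2 h in 50 mM Tris-HCl pH 7.6, 0.3 M NaCl, 10 mM CaCl2, 0.005% Brij35. Activity was read by fluorescence using MOCAc-Pro-Leu-Gly-Leu-A2Pr(DNP)-Ala-Arg-NH2 substrate, with enzyme and inhibitor blank corrections. IC50 is the concentration giving 50% inhibition.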

Row | Structure (SMILES) | IC50 (MMP-2) [µM] | IC50 (MMP-9) [µM] | IC50 (MMP-13) [nM]
1 | CC[C@H](NS(=O)(=O)N1CCN(c2ccc(C#Cc3ccnc(C(=O)NCc4ccc(Cl)cc4)c3)cc2)CC1)C(=O)O [III-68, (S)-2-(4-{4-[2-(4-chrolobenzylcarbamoyl)-pyridin-4-ylethynyl]-phenyl}-piperazine-1-sulfonylamino)-butanoic acid] | > 10 | > 10 | 5
2 | CC(C)[C@H](NS(=O)(=O)N1CCN(c2ccc(C#Cc3ccnc(C(=O)NCc4ccc(Cl)cc4)c3)cc2)CC1)C(=O)O [III-69, (S)-2-(4-{4-[2-(4-chrolobenzylcarbamoyl)-pyridin-4-ylethynyl]-phenyl}-piperazine-1-sulfonylamino)-3-methylbutanoic acid] | > 10 | > 10 | 7
3 | CC(C)[C@@H](NS(=O)(=O)N1CCN(c2ccc(C#Cc3ccc4[nH]c(=O)n(Cc5ccc(F)cc5)c(=O)c4c3)cc2)CC1)C(=O)O [III-72, (R)-2-(4-{4-[3-(4-fluorobenzyl)-2,4-dioxo-1,2,3,4-tetrahydroquinazolin-6-ylethynyl]-phenyl}-piperazine-1-sulfonylamino)-3-methylbutanoic acid] | > 10 | > 10 | 21
4 | COc1ccc(Cn2c(=O)[nH]c3ccc(C#Cc4ccc(N5CCN(S(=O)(=O)N[C@@H](C(=O)O)C(C)C)CC5)cc4)cc3c2=O)cc1 [III-73, (R)-2-(4-{4-[3-(4-methoxybenzyl)-2,4-dioxo-1,2,3,4-tetrahydroquinazolin-6-ylethynyl]-phenyl}-piperazine-1-sulfonylamino)-3-methylbutanoic acid] | > 10 | > 10 | 23
5 | COc1ccc(Cn2c(=O)c3cc(C#Cc4ccc(N5CCN(S(=O)(=O)N[C@@H](C(=O)O)C(C)C)CC5)cc4)ccc3n(C)c2=O)cc1 [III-80, (R)-2-(4-{4-[3-(4-methoxybenzyl)-1-methyl-2,4-dioxo-1,2,3,4-tetrahydroquinazolin-6-ylethynyl]-phenyl}-piperazine-1-sulfonylamino)-3-methylbutanoic acid] | > 10 | > 10 | 13
6 | CC(C)[C@@H](NS(=O)(=O)N1CCN(c2ccc(C#Cc3ccnc(C(=O)NCc4cccc(Cl)c4)c3)cc2)CC1)C(=O)O [III-81, (R)-2-(4-{4-[2-(3-chrolobenzylcarbamoyl)-pyridin-4-ylethynyl]-phenyl}-piperazine-1-sulfonylamino)-3-methylbutanoic acid] | 1 to 10 | > 10 | 6
7 | CCC(=O)c1cccc2ccc(C#Cc3ccc(N4CCN(S(=O)(=O)N[C@H](C)C(=O)O)CC4)cc3)cc12 [III-86, (R)-2-{4-[4-(8-propionylnaphthalen-2-ylethynyl)-phenyl]-piperazine-1-sulfonylamino}-proponic acid] | 1 to 10 | > 10 | 9
8 | CCC(=O)c1cccc2ccc(C#Cc3ccc(N4CCN(S(=O)(=O)N[C@@H](C(=O)O)C(C)C)CC4)cc3)cc12 [III-87, (R)-2-{4-[4-(8-propionylnaphthalen-2-ylethynyl)-phenyl]-piperazine-1-sulfonylamino}-3-methylbutanoic acid] | > 10 | > 10 | 25
9 | COc1ccc(C#Cc2ccc(N3CCN(S(=O)(=O)N[C@@H](C(=O)O)C(C)C)CC3)cc2)cc1C(=O)NCC#N [III-94, (R)-2-(4-{4-[3-(cyanomethylcarbamoyl)-4-methoxyphenylethynyl]-phenyl}-piperazine-1-sulfonylamino)-3-methylbutanoic acid] | 1 to 10 | 1 to 10 | 9
10 | CC(C)CCOc1ccc(C#Cc2ccc(N3CCN(S(=O)(=O)N[C@@H](C(=O)O)C(C)C)CC3)cc2)cc1C(=O)NCC#N [III-99, (R)-2-(4-{4-[3-(cyanomethylcarbamoyl)-4-(3-methylbutoxy)phenylethynyl]-phenyl}-piperazine-1-sulfonylamino)-3-methylbutanoic acid] | 1 to 10 | > 10 | 25
11 | CC(C)Oc1ccc(C#Cc2ccc(N3CCN(S(=O)(=O)N[C@H](C)C(=O)O)CC3)cc2)cc1C(=O)NCc1ccccc1 [III-116, (R)-2-{4-[4-(3-benzylcarbamoyl-4-isopropoxyphenylethynyl)-phenyl]-piperazine-1-sulfonylamino}-proponic acid] | > 10 | > 10 | 23
12 | CC(C)Oc1ccc(C#Cc2ccc(N3CCN(S(=O)(=O)N[C@H](C)C(=O)O)CC3)cc2)cc1C(=O)NCc1cccc(Cl)c1 [III-118, (R)-2-(4-{4-[3-(3-chrolobenzylcarbamoyl)-4-isopropoxyphenylethynyl]-phenyl}-piperazine-1-sulfonylamino)-proponic acid] | > 10 | > 10 | 28
13 | CC(C)COc1ccc(C#Cc2ccc(N3CCN(S(=O)(=O)N[C@H](C)C(=O)O)CC3)cc2)cc1C(=O)NCc1ccccc1 [III-121, (R)-2-{4-[4-(3-benzylcarbamoyl-4-isobutoxyphenylethynyl)-phenyl]-piperazine-1-sulfonylamino}-proponic acid] | > 10 | > 10 | 25
14 | CCOCCOc1ccc(C#Cc2ccc(N3CCN(S(=O)(=O)N[C@@H](C(=O)O)C(C)C)CC3)cc2)cc1C(=O)NCC#N [III-135, (R)-2-(4-{4-[3-(cyanomethylcarbamoyl)-4-(2-ethoxyethoxy)-phenylethynyl]-phenyl}-piperazine-1-sulfonylamino)-3-methylbutanoic acid] | 1 to 10 | > 10 | 9
15 | CC(C)OCCOc1ccc(C#Cc2ccc(N3CCN(S(=O)(=O)N[C@@H](C(=O)O)C(C)C)CC3)cc2)cc1C(=O)NCC#N [III-137, (R)-2-(4-{4-[3-(cyanomethylcarbamoyl)-4-(2-isopropoxyethoxy)-phenylethynyl]-phenyl}-piperazine-1-sulfonylamino)-3-methylbutanoic acid] | 1 to 10 | > 10 | 17
16 | CC(C)[C@@H](NS(=O)(=O)N1CCN(c2ccc(C#Cc3ccc(OCCOC(C)(C)C)c(C(=O)NCC#N)c3)cc2)CC1)C(=O)O [III-138, (R)-2-(4-{4-[4-(2-tert-butoxyethoxy)-3-(cyanomethylcarbamoyl)-phenylethynyl]-phenyl}-piperazine-1-sulfonylamino)-3-methylbutanoic acid] | 1 to 10 | > 10 | 18
17 | CC(C)[C@@H](NS(=O)(=O)N1CCN(c2ccc(C#Cc3ccnc(C(=O)NCc4ccc(Cl)cc4)c3)cc2)CC1)C(=O)O [III-144, (R)-2-(4-{4-[2-(4-chrolobenzylcarbamoyl)-pyridin-4-ylethynyl]-phenyl}-piperazine-1-sulfonylamino)-3-methylbutanoic acid] | 1 to 10 | > 10 | 10
18 | COc1ccc(CNC(=O)c2cc(C#Cc3ccc(N4CCN(S(=O)(=O)N[C@@H](C(=O)O)C(C)C)CC4)cc3)ccn2)cc1 [III-150, (R)-2-(4-{4-[2-(4-methoxybenzylcarbamoyl)-pyridin-4-ylethynyl]-phenyl}-piperazine-1-sulfonylamino)-3-methylbutanoic acid] | 1 to 10 | > 10 | 7

— patent US20100099676A1 (SHIONOGI & CO., LTD., priority 2006, published 2010)
